The text below walks through data of PMC9866852, “New Chlorinated Metabolites and Antiproliferative Polyketone from the Mangrove Sediments-Derived Fungus Mollisia sp. SCSIO41409” (Marine Drugs, 2022).

≈ marks a conversion by molar mass, not a printed value. Where two headings read alike, the source gives them in different places. Marks after values point to notes of the source that are not given here.

The subject of one data set is Botrytis cinerea. Nature of the data set: Antifungal MIC, twofold serial dilution in 96-well plates. The note with it: B. cinerea. Type of data set: cell-based.
Data set [1] has as its system Verticillium dahlia kieb. Described as above. The note with it: V. dahlia. The format is cell-based.
The subject of data set [2] is Fusarium graminearum schw. Kind of data set: microbe, parasite or virus in culture. Type of data set: cell-based. The note with it: read-out: Antifungal MIC.
In data set [3] the test system is Fusarium oxysporum f.sp. niveum. Kind of data set: Antifungal MIC, twofold serial dilution in 96-well plates. The format is cell-based.
A further data set relates to Rhizoctonia solani. Described as above. Conditions: R. solani. Type of data set: cell-based.
The next data set concerns Septoria nodorum Berk. Described as above. Type of data set: cell-based. The note with it: Parastagonospora nodorum; S. nodorum.
Data set [4] concerns Erysipelothrix rhusiopathiae WH13013. Nature of the data set: Antibacterial MIC, twofold serial dilution in 96-well plates. The format is cell-based. The note with it: E. rhusiopathiae; for MIC: Erysipelothrix rhusiopathiae, WH13013.
The test system of data set [5] is Staphylococcus aureus ATCC 25923. The description is as above. Type of data set: cell-based. Conditions: S. aureus; for MIC: Staphylococcus aureus, ATCC25923.
Another data set relates to Streptococcus suis SC19. The description is as above. Type of data set: cell-based. The note with it: S. suis; for MIC: Streptococcus suis, SC19.
The test system of data set [6] is Escherichia coli ATCC 25922. The description is as above. Type of data set: cell-based. Conditions: ATCC25922, E. coli.
For a further data set, the system named is 22Rv1 cells. Nature of the data set: Cytotoxicity / antiproliferative MTT assay. Type of data set: cell-based, human. Conditions: read-out: Cytotoxic IC50. Here is the method: (§1) Cell viability was analyzed by 3-(4,5)-[…] (MTT) assay as previously described. In brief, cells were seeded in a 96-well plate at a density of 5 × 10^3 per well overnight and treated with compounds for demand time. OD570 values were detected using a Hybrid Multi-Mode Reader (Synergy H1, BioTek, Santa Clara, CA, USA). The experiment was independently repeated three times.

Data set [7] can be described thus: Cytotoxicity / antiproliferative MTT assay. The format is cell-based. The note with it: human, WPMY-1 cells, read-out: Cytotoxic IC50. The protocol:
as §1

A further data set concerns A549 cells. Nature of the data set: Cytotoxicity / antiproliferative MTT assay. The format is cell-based. Conditions: Homo sapiens, read-out: Cytotoxic IC50. The protocol:
as §1

The subject of another data set is Hela cells. Nature of the data set: Cytotoxicity / antiproliferative MTT assay. The format is cell-based. The note with it: Homo sapiens, read-out: Cytotoxic IC50. The protocol: as §1
Another data set deals with HepG2 cells. Kind of data set: Cytotoxicity / antiproliferative MTT assay. The format is cell-based. The note with it: read-out: Cytotoxic IC50. Here is the method: as §1
For a further data set, the system named is WPMY-1 cells. Kind of data set: Cytotoxicity / antiproliferative MTT assay. The format is cell-based. The note with it: read-out: Cytotoxic IC50. Here is the method: as §1
The subject of data set [8] is PC-3 cells. Kind of data set: Plate clone formation assay. Type of data set: cell-based, human. Conditions: 0.16, 0.32 and 0.64 μM; two weeks. Here is the method:
The cell clone colony formation was observed after two weeks of treatment. Cells were fixed with 4% formaldehyde for 30 min and washed with PBS buffer, then stained with crystal violet stain solution for 30 min. The dye solution was removed and washed the cells with PBS buffer again. Cell colonies were recorded and analyzed by the colony count analysis system (GelCount, Oxford Optronix, Oxford, UK). The experiment was repeated three times independently.

The subject of data set [9] is PC-3 cells. Kind of data set: Apoptosis assay, annexin V-FITC/PI flow cytometry. Conditions: 48 h. Type of data set: cell-based, human. An excerpt:
(§2) Then, cells were collected and stained with annexin V-FITC and PI solution, following the manufacturer’s manual (BMS500FI-300, Thermo Fisher Scientific, Waltham, MA, USA). Apoptotic rates and cell cycle distribution of PC-3 cells were examined and analyzed by flow cytometer (NovoCyte, Agilent, Santa Clara, CA, USA). Each experiment was repeated three times independently.

The subject of data set [10] is PC-3 cells. Kind of data set: Cell cycle distribution, flow cytometry. The format is cell-based, human. Conditions: 48 h.
Text: as §2

The subject of data set [11] is HepG2, A549, Hela, WPMY-1, MC3T3-E1 cells. Nature of the data set: Antiproliferative MTT assay, summary over other cells. The format is cell-based. Conditions: range over HepG2, A549, Hela, read-out: IC50 values against other cells. The protocol:
as §1

In a further data set the target is human CCR5 receptor. Further details: method as in PMID 15217290. Conditions: read-out: IC50, inhibition of binding with human CCR5 receptor; cited from earlier work.
Data set [12] has as its system PC-3 cells. Nature of the data set: Cytotoxicity / antiproliferative MTT assay. The format is cell-based. The note with it: Homo sapiens, PC-3, PC-3 (androgen receptor negative); read-out: Cytotoxic IC50. The protocol:
as §1

Data set [13] deals with Botrytis cinerea, Verticillium dahlia kieb., Fusarium graminearum schw., Fusarium oxysporum f.sp. niveum, Rhizoctonia solani, Septoria nodorum Berk. The format is cell-based. The note with it: range over B. cinerea, V. dahlia, R. solani, S. nodorum.
Setting [14] is: Homo sapiens, 22Rv1, 22Rv1 (androgen receptor positive).

Consider `CC=C(C)C(OC(C)=O)C(C)C1=CC(=O)C2=C(OC3(C)CCC4OC(C(C)(C)O)CCC4(C)C3C2)C1=O` (stereo not drawn) [Compound 4, stemphone C], for which the MIC against Botrytis cinerea was more than 100 µg/mL; in data set [1] it was more than 100 µg/mL; in data set [2] it was more than 100 µg/mL; in [3], more than 100 µg/mL; in the data set with Rhizoctonia solani, more than 100 µg/mL; against Septoria nodorum Berk., 50 µg/mL (≈ 97.2 µM). Besides, the MIC was 1.56 µg/mL (≈ 3.03 µM) in data set [4], more than 100 µg/mL in [5], 6.25 µg/mL (≈ 12.1 µM) in the data set on Streptococcus suis SC19 and more than 100 µg/mL in data set [6]. For the same compound, the IC50 was 5.81 µM with 22Rv1 cells (22Rv1 (androgen receptor positive)); less than 10 µM with 22Rv1 cells (setting [14]); less than 10 µM in data set [7]; 11.7 µM with A549 cells; 11.5 µM in the data set on Hela cells; 7.11 µM in the data set on HepG2 cells (HepG2). The IC50 in the data set with HepG2 cells (Homo sapiens, HepG2, HepG2) was less than 10 µM; in the data set with WPMY-1 cells it was 5.53 µM; in [11], 3.63 to 11.7 µM. Besides, the “Formation of clonal colonies of PC-3 cells” value with PC-3 cells [8] is “significantly inhibited the formation of clonal colonies of PC-3 cells”. Moreover, the “Q3-1 quadrant, cells” value in the data set on PC-3 cells [9] (PC-3, 2.5 μM) amounted to 3.29%; in the data set on PC-3 cells [9] (PC-3, 5.0 μM), 4.69%; in the data set on PC-3 cells [9] (PC-3, 10.0 μM), 14.56%. In addition, the “Q3-2 quadrant (late apoptosis), cells” value in the data set with PC-3 cells [9] (PC-3, 2.5 μM) amounted to 1.02%; with PC-3 cells [9] (PC-3, 5.0 μM), 4.89%; in the data set on PC-3 cells [9] (PC-3, 10.0 μM), 36.84%. The “Q3-3 quadrant, cells” value in the data set on PC-3 cells [9] (PC-3, 2.5 μM) was 94.52%; in the data set with PC-3 cells [9] (PC-3, 5.0 μM), 83.56%; in the data set on PC-3 cells [9] (PC-3, 10.0 μM) it was 33.95%. The “Q3-4 quadrant (early apoptosis), cells” value is given as 1.17% in the data set on PC-3 cells [9] (PC-3, 2.5 μM); 6.86% in the data set with PC-3 cells [9] (PC-3, 5.0 μM); 14.64% in the data set with PC-3 cells [9] (PC-3, 10.0 μM). Besides, the “Freq S” value with PC-3 cells [10] (PC-3, 10.0 μM) was 59.14%.

With Penicillin [reference compound], the “Antibacterial MIC” value in data set [4] is 6.25^b μg/mL; in data set [4] (listed as penicillin), 6.25 µg/mL; in data set [5], 6.25 ^b μg/mL; in the data set on Streptococcus suis SC19, 1.56 ^b μg/mL.

Consider `CC(C)=CCC[C@H](C)[C@H]1CC[C@]2(C)C[C@H]3[C@H](C(=O)C[C@@]3(C)O)/C(C=O)=C\C[C@@H]12` [Ophiobolin C], for which, on human CCR5 receptor, the half-inhibitory concentration (IC50) was 40 µM.

`CC(=O)O[C@@]12CO[C@@H]1C[C@H](O)[C@@]1(C)C(=O)[C@H](O)C3=C(C)[C@@H](OC(=O)[C@H](O)[C@@H](NC(=O)OC(C)(C)C)c4ccccc4)C[C@@](O)([C@@H](OC(=O)c4ccccc4)[C@H]21)C3(C)C` [Docetaxel, reference compound]: the IC50 was found to be 0.03 µM with 22Rv1 cells (setting [14]); 0.51 µM in data set [7]; 29.9 µM in the data set on A549 cells; 179 µM with HepG2 cells (Homo sapiens, HepG2, HepG2); 0.12 µM in the data set with PC-3 cells [12]. The “Q3-1 quadrant, cells” value in the data set with PC-3 cells [9] (PC-3, 1.0 μM) stood at 5.87%. In the data set on PC-3 cells [9] (PC-3, 1.0 μM), the “Q3-2 quadrant (late apoptosis), cells” value is given as 1.68%. Also, in the data set on PC-3 cells [9] (PC-3, 1.0 μM), the “Q3-3 quadrant, cells” value is given as 89.89%. For the same compound, the “Q3-4 quadrant (early apoptosis), cells” value with PC-3 cells [9] (PC-3, 1.0 μM) came to 2.57%. Further, the “Freq G2 (G2/M)” value with PC-3 cells [10] (PC-3, 1.0 μM) is given as 71.23%.

In the case of `C[C@@H]1C[C@@H]([C@H](O)CC2CC(=O)NC(=O)C2)C(=O)[C@@H](C)C1` [Cycloheximide, reference compound], the MIC was 12.5 µg/mL (≈ 44.4 µM) with Botrytis cinerea; 12.5 µg/mL (≈ 44.4 µM) in data set [1]; 12.5 µg/mL (≈ 44.4 µM) in data set [2]; more than 100 µg/mL in [3]; 100 µg/mL (≈ 355 µM) in the data set with Rhizoctonia solani; 12.5 µg/mL (≈ 44.4 µM) against Septoria nodorum Berk..

`[H]/N=C(/N)N[C@H]1[C@H](O)[C@@H](O)[C@H](O[C@@H]2O[C@@H](C)[C@](O)(C=O)[C@H]2O[C@@H]2O[C@@H](CO)[C@H](O)[C@@H](O)[C@@H]2NC)[C@@H](N/C(N)=N\[H])[C@@H]1O` [Streptomycin, reference compound] showed an MIC in [6] of 50 µg/mL (≈ 86 µM).

In turn, `O=C1NC(=O)C(Cl)=C1Cl` [Compound 3, 3,4-dichloro-1H-pyrrole-2,5-dione] displayed a melting point of 173 to 175 °C. Also, in the data set with Botrytis cinerea, the MIC was 25 µg/mL (≈ 151 µM). Moreover, the MIC in data set [1] was found to be 25 µg/mL (≈ 151 µM). For the same compound, the MIC in [2] turned out to be 50 µg/mL (≈ 301 µM). The compound also registered an MIC in data set [3] of 50 µg/mL (≈ 301 µM). Further, the MIC in the data set with Rhizoctonia solani is 50 µg/mL (≈ 301 µM). The same compound had an MIC in the data set on Septoria nodorum Berk. of 25 µg/mL (≈ 151 µM). In [4], this compound displayed an MIC of more than 100 µg/mL. The MIC in data set [5] came to 100 µg/mL (≈ 603 µM). Further, the MIC against Streptococcus suis SC19 is 100 µg/mL (≈ 603 µM). The MIC in [6] was more than 100 µg/mL. Moreover, the half-inhibitory concentration (IC50) in the data set with 22Rv1 cells (setting [14]) was determined as 8.35 µM. Besides, in the data set on PC-3 cells [12], the IC50 amounted to 9.6 µM. In addition, the “MIC values against six fungi” value in [13] lay within 25 to 50 µg/mL.
